Several values for one entry are separate records, joined by “and”; a condition that tells them apart may be missing. Equal values may be shown once. Blank lines part the entries; values can stand above or below the compound they belong to.
Tests used:
[1] = Pharmacokinetic testing in rats (IV or PO); assay type: in vivo; conditions: rat
Description: Examples 1A, 2A, 4A, 12A, and 14A were tested in rats to assess pharmacokinetic parameters including maximum concentration (Cmax), area under the plasma concentration time curve (AUC), clearance (CL), steady state volume of distribution (Vss), half life (t1/2), and bioavailability (F). Male Sprague Dawley rats (˜300 g) were used. Rats received compound by intravenous (IV) or oral gavage (PO) administration and the doses tested including vehicle to formulate dosing solutions are listed in Table 5.
Following IV or PO administration, 0.2 mL blood was sampled from the jugular vein at various timepoints (Table 5). Twenty microL aliquots of plasma samples and standards were subjected to protein precipitation with acetonitrile containing an internal standard. Samples were vortexed and centrifuged to obtain supernatant which was analyzed by LC-MS/MS. Analyst (Version 1.4.1) was used to measure peak areas and peak area ratios of analyte to internal standard were calculated. LC-MS/MS conditions are as follows: Mass Spectrometer+Source Type was Sciex API 4000−Turbo Spray; HPLC pump was Shimadzu; Autosampler was CTC PAL Autosampler; Injection volume was 3.0 to 10 microL; A gradient was used with mobile phase A: 10 mM ammonium acetate and 1% Isopropyl alcohol in water; B: Acetonitrile; Flowrate 0.300 mL per minute (Column 2.0×30 mm 5 microm LUNA C18 column (phenomenex)). Detection mode was negative.
A calibration curve was constructed from the peak area ratios of the standards to the internal standard by applying a weighted linear (1/x or 1/x2) regression. The dynamic range of the standard curve was 5.00 ng/mL to 5000 ng/mL.
Pharmacokinetic parameters were determined from individual animal data using non-compartmental analysis in Watson (version 7.2). Concentrations below the limit of quantitation (BLQ) were recorded as 0 ng/mL for use in calculations.
The following calculations were used: AUC(0−τ)=Determined using the linear trapezoidal method AUC(0−□)=AUC(0−τ) plus extrapolated area determined by dividing plasma concentration at τ by the slope of the terminal log-linear phase CL=Dose/AUC(0−∞) Vdss=CL×MRT Cmax=Recorded directly from plasma concentration time curve Tmax=Recorded directly from plasma concentration time curve t½=ln(0.5)/slope of the terminal log-linear phase F %=AUC(0−∞)PO per dose/AUC(0−∞)IV per dose C(0)=Extrapolated by linear regression from the apparent distribution phase following IV administration MRT=AUMC(AUC(0−∞)/AUC(0−∞)

Male Sprague Dawley rats = experiment: In-vivo assay: urinary glucose excretion in rats after oral gavage; conditions: rat, urine collected for 24 hours
Description: Examples 1A and 4A were tested in rats to assess inhibition of glucose transport via urinary glucose excretion. Male Sprague Dawley rats (˜300 g) were singly housed in metabolic cages for urine collection. Rats had access to standard laboratory chow and water ad libitum. Rats (n=2 to 5/group) received vehicle or compound by oral gavage. Dosing solutions were 0.03 mg/mL, 0.3 mg/mL, 0.9 mg/mL, 3 mg/mL, 9 mg/mL and 18 mg/mL for the 0.1 mg/kg, 1 mg/kg, 3 mg/kg, 10 mg/kg, 30 mg/kg and 60 mg/kg doses respectively. Dosing volume was 1 mL/300 g of body weight for all doses. […] The vehicle was 20% v/v PEG400 and 24% v/v hydroxypropyl beta cyclodextrin; HPBCD. Following oral administration, urine was collected for 24 hours. Glucose concentration was measured in urine by UV absorbance spectrophotometry at 340 nm using a Roche Hitachi 917 spectrophotometer (Diamond Diagnostics, Holliston, Mass.). The total amount of glucose excreted in the urine was calculated as the product of urine concentration and urine volume using the formula below: urinary glucose excreted (mg)/200 g body weight=urinary glucose concentration (mg/dL)×urine volume (dL)×200/rat body weight (g). […] Blood (0.1 mL) was collected from the PK satellite group animals at 1, 2, 4, 7, 24 hours postdose to obtain plasma and analyzed by LC-MS/MS.

hSGLT1 = target: T1, hSGLT1 (Homo sapiens, UniProt P13866); experiment: SGLT1 functional assay: hSGLT1 IC50 (selectivity counter-screen to the SGLT2 AMG uptake assay); assay type: cell-based; conditions: individual runs (Run No.)
T1 sequence (P13866 1-664): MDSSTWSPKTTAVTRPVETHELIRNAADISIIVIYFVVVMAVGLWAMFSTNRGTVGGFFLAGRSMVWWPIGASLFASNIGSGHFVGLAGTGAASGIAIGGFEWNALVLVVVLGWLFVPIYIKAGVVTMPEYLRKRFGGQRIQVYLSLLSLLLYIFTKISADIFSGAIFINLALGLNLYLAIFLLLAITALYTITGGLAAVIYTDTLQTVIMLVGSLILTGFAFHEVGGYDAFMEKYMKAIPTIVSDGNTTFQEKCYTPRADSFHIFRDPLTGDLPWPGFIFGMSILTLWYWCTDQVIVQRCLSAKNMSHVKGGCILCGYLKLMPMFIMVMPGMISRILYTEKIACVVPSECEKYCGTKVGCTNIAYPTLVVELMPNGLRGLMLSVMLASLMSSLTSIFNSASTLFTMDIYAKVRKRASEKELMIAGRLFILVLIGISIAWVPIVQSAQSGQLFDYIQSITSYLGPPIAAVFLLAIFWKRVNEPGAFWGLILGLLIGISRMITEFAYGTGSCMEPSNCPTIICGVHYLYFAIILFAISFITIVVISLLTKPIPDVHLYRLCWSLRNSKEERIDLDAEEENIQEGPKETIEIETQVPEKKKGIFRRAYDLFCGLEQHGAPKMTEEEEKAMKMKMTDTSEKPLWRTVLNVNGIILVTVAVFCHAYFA

[2] = male, Sprague Dawley, plasma, IV, 2 mg/kg
[3] = male, Sprague Dawley, plasma, PO, 2 mg/kg, Tween 80/0.5% MC
[4] = male, Sprague Dawley, plasma, PO, 5 mg/kg, 20% PEG/24% HBCD
[5] = male, Sprague Dawley, plasma, PO, 10 mg/kg, PEG200/0.5% MC

Compound: CCOc1ccc(Cc2cc([C@]34OC[C@](CO)(O3)[C@@H](O)[C@H](O)[C@H]4O)ccc2Cl)cc1 [Example 4A, (1S,2S,3S,4R,5S)-5-[4-chloro-3-(4-ethoxy-benzyl)-phenyl]-1-hydroxymethyl-6,8-dioxa-bicyclo[3.2.1]octane-2,3,4-triol]
AUC(0-inf) [1, 2]: 8.48 µg·h/mL
Vd ([1]; male, Sprague Dawley, plasma, IV, 2 mg/kg, read-out: Vss): 1.1 L/kg
AUC(0-inf) [1, 3]: 5.65 µg·h/mL
Cmax [1, 3]: 0.772 µg/mL
half-life [1, 3]: 3.7 h
AUC(0-inf) [1, 4]: 16.8 µg·h/mL
Cmax [1, 4]: 1.19 µg/mL
CL ([1]; IV, 2 mg/kg): 0.242 L/h/kg
t1/2 ([1]; IV, 2 mg/kg): 4.1 h
F ([1]; PO, 2 mg/kg, Tween 80/0.5% MC): 67%
F ([1]; PO, 5 mg/kg, 20% PEG/24% HBCD): 79%
Mean UGE (mg/200 g of body weight) ± SEM (n = 5) (Male Sprague Dawley rats; 0.1 mg/kg): 389.0 ± 62.54 mg/200 g of body weight
Mean UGE (mg/200 g of body weight) ± SEM (n = 5) (Male Sprague Dawley rats; 1 mg/kg): 1519 ± 52.02 mg/200 g of body weight
Mean UGE (mg/200 g of body weight) ± SEM (n = 5) (Male Sprague Dawley rats; 3 mg/kg): 1937 ± 101.1 mg/200 g of body weight
Mean UGE (mg/200 g of body weight) ± SEM (n = 5) (Male Sprague Dawley rats; 10 mg/kg): 2145 ± 132.3 mg/200 g of body weight
Mean UGE (mg/200 g of body weight) ± SEM (n = 5) (Male Sprague Dawley rats; 30 mg/kg): 2554 ± 141.1 mg/200 g of body weight
Mean UGE (mg/200 g of body weight) ± SEM (n = 5) (Male Sprague Dawley rats; 60 mg/kg): 2437 ± 116.7 mg/200 g of body weight
IC50 (hSGLT1): 1.59 µM and 1.01 µM and 1.75 µM and > 1 µM and 2.09 µM and 1.81 µM and 2.86 µM and 2.48 µM and 2.84 µM

AUC(0-inf) [1, 2]: 0.947 µg·h/mL
AUC(0-inf) [1, 5]: 2.68 µg·h/mL
Cmax [1, 5]: 1.65 µg/mL
half-life [1, 5]: 2.82 h
CL ([1]; IV, 2 mg/kg): 2.23 L/h/kg
Vss ([1]; IV, 2 mg/kg): 1.71 L/kg
t1/2 ([1]; IV, 2 mg/kg): 0.962 h
F ([1]; PO, 10 mg/kg, PEG200/0.5% MC): 56.5%
IC50 (hSGLT1): 0.359 µM and 1.08 µM and 0.454 µM and 0.327 µM and 0.562 µM and 0.262 µM
Compound: COc1ccc(Cc2cc([C@]34OC[C@](CO)(O3)[C@@H](O)[C@H](O)[C@H]4O)ccc2C)cc1 [Example 1A, (1S,2S,3S,4R,5S)-1-hydroxymethyl-5-[3-(4-methoxy-benzyl)-4-methyl-phenyl]-6,8-dioxa-bicyclo[3.2.1]octane-2,3,4-triol]
Mean UGE (mg/200 g of body weight) ± SEM (n = 5) (Male Sprague Dawley rats; 10 mg/kg): 2049 ± 382.2 mg/200 g of body weight
